Data: ChEMBL document CHEMBL3112464, “Novel, sulfonamide linked inhibitors of the hepatitis C virus NS3 protease” (Bioorg Med Chem Lett, 2014)

Assays:
[1] = Inhibition of HCV genotype 1b NS3/4A protease; parameters: species or system Hepatitis C virus subtype 1b
Hepatitis C virus = test: Antiviral activity against HCV genotype 1b infected in Rluc cells by 384 well-format assay; type: functional, organism-based, Hepacivirus hominis

IC50 [1] [nM] | EC50 (Hepatitis C virus) [nM] | Structure (SMILES)
2.9 | 79 | COc1ccc2c(O[C@@H]3C[C@H]4C(=O)N[C@]5(C(=O)NS(=O)(=O)C6CC6)C[C@H]5/C=C\CCCCCS(=O)(=O)N4C3)cc(-c3nc(C(C)C)cs3)nc2c1C
4.7 | 89 | COc1ccc2c(O[C@@H]3C[C@H]4C(=O)N[C@]5(C(=O)NS(=O)(=O)C6CC6)C[C@H]5CCCCCCCS(=O)(=O)N4C3)cc(-c3nc(C(C)C)cs3)nc2c1C
13 | 440 | COc1ccc2c(O[C@@H]3C[C@H]4C(=O)N[C@]5(C(=O)NS(=O)(=O)C6CC6)C[C@H]5/C=C\CCCCCCS(=O)(=O)N4C3)cc(-c3nc(C(C)C)cs3)nc2c1C
0.3 | 5.8 | COc1ccc2c(O[C@@H]3C[C@H]4C(=O)N[C@]5(C(=O)NS(=O)(=O)C6CC6)C[C@H]5/C=C\CCCCCCC(=O)N4C3)cc(-c3nc(C(C)C)cs3)nc2c1C

Continued, molecule first:

Structure (SMILES) | IC50 [1] [nM] | EC50 (Hepatitis C virus) [nM]
C=C[C@@H]1C[C@]1(NC(=O)[C@@H]1C[C@@H](Oc2cc(-c3nc(C(C)C)cs3)nc3c(C)c(OC)ccc23)[C@H]2CCCC(=O)N21)C(=O)NS(=O)(=O)C1CC1 | 47 | > 2000
COc1ccc2c(O[C@@H]3C[C@H]4C(=O)N[C@]5(C(=O)O)C[C@H]5/C=C\CCCCCS(=O)(=O)N4C3)cc(-c3nc(C(C)C)cs3)nc2c1C | 747 | > 2000
COc1ccc2c(O[C@@H]3C[C@H]4C(=O)N[C@]5(C(=O)O)C[C@H]5/C=C\CCCCCCS(=O)(=O)N4C3)cc(-c3nc(C(C)C)cs3)nc2c1C | 712 | > 2000
COc1ccc2c(O[C@@H]3C[C@H]4C(=O)N[C@]5(C(=O)NS(=O)(=O)C6CC6)C[C@H]5CCCCCCCCS(=O)(=O)N4C3)cc(-c3nc(C(C)C)cs3)nc2c1C | 7.4 | 257
C=C[C@@H]1C[C@]1(NC(=O)[C@@H]1C[C@@H](Oc2cc(-c3nc(C(C)C)cs3)nc3c(C)c(OC)ccc23)[C@H]2CCCS(=O)(=O)N21)C(=O)NS(=O)(=O)C1CC1 | 639 | > 2000
COc1ccc2c(O[C@@H]3C[C@H]4C(=O)N[C@]5(C(=O)NS(=O)(=O)C6CC6)C[C@H]5/C=C\CCCCCC(=O)N4C3)cc(-c3nc(C(C)C)cs3)nc2c1C | 0.4 | 4
